According to patent US7169789B2 (Kirin Beer Kabushiki Kaisha, priority 1999, dated 2007):

Assays:
[1] = target: T1, human KDR (Homo sapiens, UniProt P35968); test: Inhibitory activity against KDR phosphorylation by ELISA; type: cell-based; conditions: NIH 3T3 cells transfected with human KDR, VEGF 100 ng/ml
T1 construct: expressed in transfected cells; host or cells: NIH 3T3 cells (Sawano A et al., Cell Growth & Differentiation 7, 213-221 (1996))
Method: Measurement of Inhibitory Activity Against KDR Phosphorylation by ELISA
NIH 3T3 cells (Sawano A et al., Cell Growth & Differentation, 7, 213–221 (1996), “Flt-1 but not KDR/Flk-1 tyrosine kinase is a receptor for placenta growth factor, which is related to vascular endothelial growth factor”) prepared by transfection of human KDR were cultured in a DMEM medium containing 10% fetal calf serum (purchased from GIBCO BRL) within a 5% carbon dioxide incubator until 50 to 70% confluent. The harvested cells were inoculated into wells, containing the same medium, in a collagen-type one-coat 96-well flat-bottom plate in an amount of 1.5×10^4 per well, followed by cultivation at 37° C. overnight. The medium was then replaced by a DMEM medium containing 0.1% fetal calf serum. A solution of the test compound in dimethyl sulfoxide was added to each well, and the cultivation was continued at 37° C. for additional one hr. A human recombinant vascular endothelial growth factor (hereinafter abbreviated to “VEGF”) was added to a final concentration of 100 ng/ml, and the stimulation of cells was carried out at 37° C. for 2 min. The medium was removed, the cells were washed with phosphate buffered saline (pH 7.4), and 50 μl of a solubilization buffer (20 mM HEPES (pH 7.4), 150 mM NaCl, 0.2% Triton X-100, 10% glycerol, 5 mM sodium orthovanadylate, 5 mM disodium ethylenediaminetetraacetate, and 2 mM Na4P2O7) was then added thereto. The mixture was shaken at 4° C. for 2 hr to prepare a cell extract.
Separately, phosphate buffered saline (50 μl, pH 7.4) containing […] of anti-phospho-tyrosine antibody (PY20; purchased from Transduction Laboratories) was added to a microplate for ELISA (Maxisorp; purchased from NUNC), followed by standing at 4° C. overnight to form a solid phase on the wells. After washing of the plate, 300 μl of a blocking solution was added, followed by standing at room temperature for 2 hr to perform blocking. After washing, the whole quantity of the cell extract was transferred to the wells, and the plate was then allowed to stand at 4° C. overnight. After washing, an anti-KDR antibody (purchased from Santa Cruz) was allowed to react at room temperature for one hr, and, after washing, a peroxidase-labeled anti-rabbit Ig antibody (purchased from Amersham) was allowed to react at room temperature for one hr. After washing, a chromophoric substrate for peroxidase (purchased from Sumitomo Bakelite Co., Ltd.) was added thereto to initiate a reaction. After a suitable level of color development, a reaction termination solution was added to stop the reaction, and the absorbance at 450 nm was measured with a microplate reader. The KDR phosphorylation activity for each well was determined by presuming the absorbance with the addition of VEGF and without the addition of the medicament to be 100% KDR phosphorylation activity and the absorbance without the medicament and VEGF to be 0% KDR phosphorylation activity. The concentration of the test compound was varied on several levels, the inhibition (%) of KDR phosphorylation was determined for each case, and the concentration of the test compound necessary for inhibiting 50% of KDR phosphorylation (IC50) was calculated.

[2] = tested on: Human glioma cells GL07; test: Antitumor effect on human glioma cells (GL07) transplanted into nude mice; type: in vivo; conditions: Mus musculus, Glioma cell, 216 h, GL07, oral, 20 mg/kg once a day for 9 days, read-out: TGIR, % (tumor growth inhibition rate)
Method: Antitumor Effect on Human Glioma Cells (GL07)
Human glioma cells GL07 (obtained from Central Laboratories for Experimental Animals) were transplanted into nude mice. When the tumor volume became about 100 mm^3, the mice were grouped. In this case, grouping was carried out so that each group consisted of four mice and the average tumor volume was even among the groups. The test compound was orally or intraperitoneally administered at a dose of 20 mg/kg to the test groups every day once a day for 9 days, while the medium was administered to the control group in the manner as in the test groups. The tumor growth inhibition rate (TGIR) was calculated as follows: The tumor growth inhibition rate (TGIR)=(1−Tx/Cx)×100 wherein Cx represents the volume of tumor at day x for the control group when the tumor volume at the day of the start of the administration was presumed to be 1; and Tx represents the volume of tumor for test compound administration groups.

T1 sequence (P35968 20-1356): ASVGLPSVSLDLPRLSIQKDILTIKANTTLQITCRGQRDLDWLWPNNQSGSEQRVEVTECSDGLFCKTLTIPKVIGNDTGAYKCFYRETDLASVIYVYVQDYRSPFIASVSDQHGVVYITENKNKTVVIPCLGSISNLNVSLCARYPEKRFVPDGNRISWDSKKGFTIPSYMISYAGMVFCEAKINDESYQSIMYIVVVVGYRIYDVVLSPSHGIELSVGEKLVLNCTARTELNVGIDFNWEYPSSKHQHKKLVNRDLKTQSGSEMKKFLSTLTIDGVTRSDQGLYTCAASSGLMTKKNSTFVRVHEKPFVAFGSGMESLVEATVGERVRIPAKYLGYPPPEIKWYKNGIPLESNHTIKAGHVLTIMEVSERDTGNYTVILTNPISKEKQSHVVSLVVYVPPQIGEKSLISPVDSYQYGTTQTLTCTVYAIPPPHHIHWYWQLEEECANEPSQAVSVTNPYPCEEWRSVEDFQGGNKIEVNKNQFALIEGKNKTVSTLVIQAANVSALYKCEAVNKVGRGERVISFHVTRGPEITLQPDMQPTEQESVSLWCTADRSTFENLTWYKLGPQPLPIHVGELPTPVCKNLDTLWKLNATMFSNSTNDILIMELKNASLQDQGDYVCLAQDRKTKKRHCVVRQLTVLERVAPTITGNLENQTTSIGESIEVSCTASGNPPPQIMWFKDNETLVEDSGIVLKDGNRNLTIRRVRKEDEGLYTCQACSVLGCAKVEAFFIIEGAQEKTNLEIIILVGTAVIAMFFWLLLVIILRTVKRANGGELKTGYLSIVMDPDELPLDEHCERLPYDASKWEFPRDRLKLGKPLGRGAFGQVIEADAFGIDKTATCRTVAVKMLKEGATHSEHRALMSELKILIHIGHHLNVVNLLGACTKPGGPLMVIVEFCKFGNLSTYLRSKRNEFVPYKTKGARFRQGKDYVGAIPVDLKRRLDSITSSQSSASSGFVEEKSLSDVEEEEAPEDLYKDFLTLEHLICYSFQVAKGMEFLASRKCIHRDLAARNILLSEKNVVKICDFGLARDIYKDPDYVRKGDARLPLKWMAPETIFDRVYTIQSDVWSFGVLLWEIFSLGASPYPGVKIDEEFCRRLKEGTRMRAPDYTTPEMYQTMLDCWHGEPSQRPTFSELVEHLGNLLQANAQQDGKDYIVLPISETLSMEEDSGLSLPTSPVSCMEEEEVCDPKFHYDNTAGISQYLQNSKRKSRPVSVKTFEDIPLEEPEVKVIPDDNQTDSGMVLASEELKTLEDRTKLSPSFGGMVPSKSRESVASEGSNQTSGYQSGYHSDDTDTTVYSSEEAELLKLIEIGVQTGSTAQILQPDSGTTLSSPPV

CCCNC(=O)Nc1ccc(Oc2ncnc3cc(OCc4ccncc4)c(OC)cc23)cc1Cl [Example 123, N-(2-Chloro-4-{[6-methoxy-7-(4-pyridylmethoxy)-4-quinazolinyl]oxy}phenyl)-N′-propylurea]
IC50 [1]: 8.9 nM | inhibition in vivo at 20 mg/kg [2]: 31%

CCCNC(=O)Nc1ccc(Oc2ncnc3cc(OCCCCCN4CCOCC4)c(OC)cc23)cc1Cl [Example 124, N-[2-Chloro-4-({6-methoxy-7-[(5-morpholinopentyl)oxy]-4-quinazolinyl}oxy)phenyl]-N′-propylurea]
IC50 [1]: 1.9 nM | inhibition in vivo at 20 mg/kg [2]: 27%

CCCNC(=O)Nc1ccc(Oc2ncnc3cc(OCCCCCn4ccnn4)c(OC)cc23)cc1Cl [Example 125, N-{2-chloro-4-[(6-methoxy-7-{[5-(1H-1,2,3-triazol-1-yl)pentyl]oxy}-4-quinazolinyl)oxy]phenyl}-N′-propylurea]
IC50 [1]: 2.6 nM | inhibition in vivo at 20 mg/kg [2]: 30%

CCN(CC)C(=O)Nc1ccc(Oc2ncnc3cc(OCc4ccncc4)c(OC)cc23)cc1Cl [Example 126, N′-(2-Chloro-4-{[6-methoxy-7-(4-pyridylmethoxy)-4-quinazolinyl]oxy}phenyl)-N,N-diethyl-urea]
IC50 [1]: > 1000 nM | inhibition in vivo at 20 mg/kg [2]: 52%

CCCNC(=O)Nc1ccc(Oc2ncnc3cc(OCCCCN4CCOCC4)c(OC)cc23)cc1Cl [Example 127, N-(2-Chloro-4-{[6-methoxy-7-(4-morpholinobutoxy)-4-quinazolinyl]oxy}phenyl)-N′-propylurea]
IC50 [1]: 1.1 nM | inhibition in vivo at 20 mg/kg [2]: 25%

CCN(CC)C(=O)Nc1ccc(Oc2ncnc3cc(OCCn4ccnn4)c(OC)cc23)cc1Cl [Example 131, N′-[2-Chloro-4-({6-methoxy-7-[2-(1H-1,2,3-triazol-1-yl)ethoxy]-4-quinazolinyl}oxy)phenyl]-N,N-diethylurea]
IC50 [1]: > 1000 nM | inhibition in vivo at 20 mg/kg [2]: 31%

CCCNC(=O)Nc1ccc(Oc2ncnc3cc(OCCCSc4ccncc4)c(OC)cc23)cc1Cl [Example 133, N-[2-Chloro-4-({6-methoxy-7-[3-(4-pyridylthio)propoxy]-4-quinazolinyl}oxy)phenyl]-N′-propylurea]
IC50 [1]: 8.3 nM | inhibition in vivo at 20 mg/kg [2]: 20%

CCCNC(=O)Nc1ccc(Oc2ncnc3cc(OCCCSc4nnnn4C)c(OC)cc23)cc1Cl [Example 134, N-{2-Chloro-4-[(6-methoxy-7-{3-[(1-methyl-1H-1,2,3,4-tetrazol-5-yl)thio]propoxy}-4-quinazolinyl)-oxy]phenyl}-N′-propylurea]
IC50 [1]: 5 nM | inhibition in vivo at 20 mg/kg [2]: 29%

CCCNC(=O)Nc1ccc(Oc2ncnc3cc(OCCCN4CCCCC4)c(OC)cc23)cc1Cl [Example 135, N-(2-chloro-4-{[6-methoxy-7-(3-piperidinopropoxy)-4-quinazolinyl]oxy}phenyl)-N′-propylurea]
IC50 [1]: 1 nM | inhibition in vivo at 20 mg/kg [2]: 62%

CCCNC(=O)Nc1ccc(Oc2ncnc3cc(OC)c(OCCN4CCN(C)CC4)cc23)cc1Cl [Example 136, N-[2-Chloro-4-({7-methoxy-6-[2-(4-methylpiperazino)ethoxy]-4-quinazolinyl}oxy)phenyl]-N′-propylurea]
IC50 [1]: 160 nM | inhibition in vivo at 20 mg/kg [2]: 23%

CCCNC(=O)Nc1ccc(Oc2ncnc3cc(OC)c(OCCCN4CCN(C)CC4)cc23)cc1Cl [Example 137, N-[2-Chloro-4-({7-methoxy-6-[3-(4-methylpiperazino)propoxy]-4-quinazolinyl}oxy)phenyl]-N′-propylurea]
IC50 [1]: 24 nM | inhibition in vivo at 20 mg/kg [2]: 20%

CCCNC(=O)Nc1ccc(Oc2ncnc3cc(OC)c(OCc4ccccn4)cc23)cc1Cl [Example 138, N-(2-Chloro-4-{[7-methoxy-6-(2-pyridylmethoxy)-4-quinazolinyl]oxy}phenyl)-N′-propylurea]
IC50 [1]: 40 nM | inhibition in vivo at 20 mg/kg [2]: 21%

CCCNC(=O)Nc1ccc(Oc2ncnc3cc(OC)c(OCCCN4CCOCC4)cc23)cc1Cl [Example 139, N-(2-Chloro-4-{[7-methoxy-6-(3-morpholinopropoxy)-4-quinazolinyl]oxy}phenyl)-N′-propylurea]
IC50 [1]: 15 nM | inhibition in vivo at 20 mg/kg [2]: 27%

CCCNC(=O)Nc1ccc(Oc2ncnc3cc(OC)c(OCCCN(C)CCO)cc23)cc1Cl [Example 140]
IC50 [1]: 36 nM | inhibition in vivo at 20 mg/kg [2]: 21%

CCCNC(=O)Nc1ccc(Oc2ccnc3cc(OCc4ccccn4)c(OC)cc23)cc1Cl [Example 141, N-(2-Chloro-4-{[6-methoxy-7-(2-pyridylmethoxy)-4-quinolyl]oxy}phenyl)-N′-propylurea]
IC50 [1]: 14 nM | inhibition in vivo at 20 mg/kg [2]: 28%

CCCNC(=O)Nc1ccc(Oc2ccnc3cc(OCc4cccnc4)c(OC)cc23)cc1Cl [Example 142, N-(2-chloro-4-{[6-methoxy-7-(3-pyridylmethoxy)-4-quinolyl]oxy}phenyl)-N′-propylurea]
IC50 [1]: 2.6 nM | inhibition in vivo at 20 mg/kg [2]: 48%

CCCNC(=O)Nc1ccc(Oc2ccnc3cc(OCc4ccncc4)c(OC)cc23)cc1Cl [Example 143, N-(2-chloro-4-{[6-methoxy-7-(4-pyridylmethoxy)-4-quinolyl]oxy}phenyl)-N′-propylurea]
IC50 [1]: 3.5 nM | inhibition in vivo at 20 mg/kg [2]: 53%

CCCNC(=O)Nc1ccc(Oc2ccnc3cc(OCCN4CCOCC4)c(OC)cc23)cc1Cl [Example 144, N-(2-chloro-4-{[6-methoxy-7-(2-morpholinoethoxy)-4-quinolyl]oxy}phenyl)-N′-propylurea]
IC50 [1]: 1.6 nM | inhibition in vivo at 20 mg/kg [2]: 56%

CCCNC(=O)Nc1ccc(Oc2ccnc3cc(OCCn4ccnn4)c(OC)cc23)cc1Cl [Example 145, N-[2-chloro-4-(6-methoxy-7-{[2-(1H-1,2,3-triazol-1-yl)ethoxy]-4-quinolyl}oxy)phenyl]-N′-propylurea]
IC50 [1]: 0.8 nM | inhibition in vivo at 20 mg/kg [2]: 57%

CCCNC(=O)Nc1ccc(Oc2ccnc3cc(OCCn4ccnc4)c(OC)cc23)cc1Cl [Example 146, N-[2-chloro-4-(7-{[2-(1H-1-imidazolyl)ethoxy]-6-methoxy-4-quinolyl}oxy)phenyl]-N′-propylurea]
IC50 [1]: 1 nM | inhibition in vivo at 20 mg/kg [2]: 48%

CCCNC(=O)Nc1ccc(Oc2ccnc3cc(OCCCO)c(OC)cc23)cc1Cl [Example 147, N-(2-Chloro-4-{[7-(3-hydroxypropoxy)-6-methoxy-4-guinolyl]oxy}phenyl)-N′-propylurea]
IC50 [1]: 1 nM | inhibition in vivo at 20 mg/kg [2]: 34%

CCCNC(=O)Nc1ccc(Oc2ccnc3cc(OCCN4CCN(C)CC4)c(OC)cc23)cc1Cl [Example 148, N-[2-chloro-4-(6-methoxy-7-{[2-(4-methylpiperazino)ethoxy]-4-quinolyl}oxy)phenyl]-N′-propylurea]
IC50 [1]: 15 nM | inhibition in vivo at 20 mg/kg [2]: 54%

CCCNC(=O)Nc1ccc(Oc2ccnc3cc(OCCO)c(OC)cc23)cc1Cl [Example 149, N-(2-chloro-4-{[7-(2-hydroxyethoxy)-6-methoxy-4-quinolyl]oxy}phenyl)-N′-propylurea]
IC50 [1]: 1.6 nM | inhibition in vivo at 20 mg/kg [2]: 47%

CCCNC(=O)Nc1ccc(Oc2ccnc3cc(OCCN(C)CCO)c(OC)cc23)cc1Cl [Example 150, N-{2-Chloro-4-[(7-{2-[(2-hydroxyethyl)-(methyl)amino]ethoxy}-6-methoxy-4-guinolyl)oxy]phenyl}-N′-propylurea]
IC50 [1]: 1.8 nM | inhibition in vivo at 20 mg/kg [2]: 22%
